Where a name gives a salt, the structure may show the parent alone. Read-outs that look alike come from different tables or passages of the source.

For 34 compounds, Ki results are on record in patent US20170247393A1, “Aminoisoxazoline Compounds as Agonists of Alpha7-Nicotinic Acetylcholine Receptors” (Forum Pharmaceuticals, Inc., priority 2015, published 2017).

In the assay the target is T1, human 5-HT3 serotonin receptors (Homo sapiens, UniProt P46098).
T1 sequence (P46098 24-478): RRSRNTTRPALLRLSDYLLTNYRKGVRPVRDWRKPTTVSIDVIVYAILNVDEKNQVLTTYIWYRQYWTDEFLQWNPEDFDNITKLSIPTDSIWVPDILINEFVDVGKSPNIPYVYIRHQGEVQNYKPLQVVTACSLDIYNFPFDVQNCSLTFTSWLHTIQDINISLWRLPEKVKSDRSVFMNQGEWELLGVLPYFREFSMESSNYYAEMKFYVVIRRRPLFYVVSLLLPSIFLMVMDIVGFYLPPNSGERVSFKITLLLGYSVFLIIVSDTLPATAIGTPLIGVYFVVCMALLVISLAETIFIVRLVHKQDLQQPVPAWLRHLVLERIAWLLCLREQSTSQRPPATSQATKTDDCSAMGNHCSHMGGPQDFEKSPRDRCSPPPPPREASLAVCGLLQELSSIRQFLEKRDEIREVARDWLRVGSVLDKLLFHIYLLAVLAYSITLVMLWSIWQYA
Kind of assay: biochemical. In kind it is binding.

The mark [1] stands for this setting: CHO cell membranes expressing human 5-HT3 receptors, [3H]BRL 43694, 120 min at room temperature, read-out: h-5HT3 Ki.

For `c1ccc2c(NC3=NOC4(C3)CN3CCC4CC3)n[nH]c2c1` (racemic) [Compound 5-P1, N-(1H-indazol-3-yl)-4′H-4-azaspiro[bicyclo[2.2.2]octane-2,5′-isoxazol]-3′-amine], the Ki – broadly, a dissociation constant, usually derived from enzyme kinetics or from competition with a known ligand – under setting [1] amounted to 750 nM. On the same count and under the same terms, in the case of `c1ccc2sc(NC3=NOC4(C3)CN3CCC4CC3)cc2c1` (racemic) [rac-12, (+/−)-N-(benzo[b]thiophen-2-yl)-4H-1′-azaspiro[isoxazole-5,3′-bicyclo[2.2.2]octan]-3-amine] it was 1800 nM. Regarding `c1ccc(NC2=NOC3(C2)CN2CCC3CC2)cc1` (single isomer, unassigned) [Compound 1-P1, N-phenyl-4H-1′-azaspiro[isoxazole-5,3′-bicyclo[2.2.2]octan]-3-amine], the affinity, expressed as Ki, was 8.4 nM.

Take `c1ccc2cc(NC3=NOC4(C3)CN3CCC4CC3)ncc2c1` (single isomer, unassigned) [Compound 2-P2, N-(isoquinolin-3-yl)-4H-1′-azaspiro[isoxazole-5,3′-bicyclo[2.2.2]octan]-3-amine]: under setting [1], the Ki was 810 nM. On the same count and under the same terms, the same measure for `c1ccc2sc(NC3=NOC4(C3)CN3CCC4CC3)nc2c1` (single isomer, unassigned) [Compound 3-P2, N-(benzo[d]thiazol-2-yl)-4H-1′-azaspiro[isoxazole-5,3′-bicyclo[2.2.2]octan]-3-amine]: 350 nM; for `COc1ccc2nc(NC3=NOC4(C3)CN3CCC4CC3)sc2c1` (single isomer, unassigned) [Compound 4-P2, N-(6-methoxybenzo[d]thiazol-2-yl)-4H-1′-azaspiro[isoxazole-5,3′-bicyclo[2.2.2]octan]-3-amine]: over 10000 nM; for `Clc1ccc2sc(NC3=NOC4(C3)CN3CCC4CC3)nc2c1` (single isomer, unassigned) [Compound 9-P2, N-(5-chlorobenzo[d]thiazol-2-yl)-4H-1′-azaspiro[isoxazole-5,3′-bicyclo[2.2.2]octan]-3-amine]: over 10000 nM. Same read-out and setting: in the case of `Clc1ccc2nc(NC3=NOC4(C3)CN3CCC4CC3)sc2c1` (single isomer, unassigned) [Compound 10-P2, N-(6-chlorobenzo[d]thiazol-2-yl)-4H-1′-azaspiro[isoxazole-5,3′-bicyclo[2.2.2]octan]-3-amine] it was over 10000 nM; in that of `c1ccc2oc(NC3=NOC4(C3)CN3CCC4CC3)nc2c1` (single isomer, unassigned) [Compound 13-P1, N-(benzo[d]oxazol-2-yl)-4H-1′-azaspiro[isoxazole-5,3′-bicyclo[2.2.2]octan]-3-amine], 2400 nM. Still for that read-out and setting: in the case of `c1cc2nc(NC3=NOC4(C3)CN3CCC4CC3)sc2cc1C1CC1` (single isomer, unassigned) [Compound 15-P1, N-(6-cyclopropylbenzo[d]thiazol-2-yl)-4H-1′-azaspiro[isoxazole-5,3′-bicyclo[2.2.2]octan]-3-amine] it was over 10000 nM; in that of `Clc1ccc2cc(NC3=NOC4(C3)CN3CCC4CC3)ncc2c1` (single isomer, unassigned) [Compound 19-P2, N-(7-chloroisoquinolin-3-yl)-4H-1′-azaspiro[isoxazole-5,3′-bicyclo[2.2.2]octan]-3-amine], over 10000 nM. Compound `Clc1ccc(NC2=NOC3(C2)CN2CCC3CC2)cc1` (single isomer, unassigned) [Compound 20-P1, N-(4-chlorophenyl)-4H-1′-azaspiro[isoxazole-5,3′-bicyclo[2.2.2]octan]-3-amine] displayed a Ki of 69 nM. Still for that read-out and setting: the same measure for `Clc1ccc(NC2=NOC3(C2)CN2CCC3CC2)cc1Cl` (single isomer, unassigned) [Compound 21-P1, N-(3,4-dichlorophenyl)-4H-1′-azaspiro[isoxazole-5,3′-bicyclo[2.2.2]octan]-3-amine]: 41.5 nM.

In the case of `Clc1cccc2nc(NC3=NO[C@@]4(C3)CN3CCC4CC3)sc12` [(R)-11, (R)—N-(7-chlorobenzo[d]thiazol-2-yl)-4H-1′-azaspiro[isoxazole-5,3′-bicyclo[2.2.2]octan]-3-amine], under setting [1], the Ki amounted to 305 nM. Same read-out and setting: the same measure for `Clc1ccc2cnc(NC3=NO[C@@]4(C3)CN3CCC4CC3)cc2c1` [(R)-18, (R)—N-(6-chloroisoquinolin-3-yl)-4H-1′-azaspiroksoxazole-5,3^1-bicyclo[2.2.2]octan1-3-amine hydrochloride]: over 10000 nM. On the same count and under the same terms, in the case of `Clc1ccc2cc(NC3=NO[C@@]4(C3)CN3CCC4CC3)ncc2c1` [(R)-19, (R)—N-(7-chloroisoquinolin-3-yl)-4H-1′-azaspiro[isoxazole-5,3′-bicyclo[2.2.2]octan]-3-amine hydrochloride] it was over 10000 nM. `Clc1ccc(NC2=NO[C@@]3(C2)CN2CCC3CC2)cc1` [(R)-20, (R)—N-(4-chlorophenyl)-4H-1′-azaspiro[isoxazole-5,3′-bicyclo[2.2.2]octan]-3-amine hydrochloride] showed a Ki of 110 nM. As to `c1ccc2nc(NC3=NO[C@@]4(C3)CN3CCC4CC3)ncc2c1` [(R)-22, (R)—N-(quinazolin-2-yl)-4H-1′-azaspiro[isoxazole-5,3′-bicyclo[2.2.2]octan]-3-amine hydrochloride], the Ki under setting [1] came out at 5200 nM.

Turning to `Clc1cccc2cc(NC3=NO[C@@]4(C3)CN3CCC4CC3)ncc12` [(R)-23, (R)—N-(8-chloroisoquinolin-3-yl)-4H-1′-azaspiroksoxazole-5,3^1-bicyclo[2.2.2]octan1-3-amine hydrochloride], under setting [1], the Ki was found to be 1200 nM. On the same count and under the same terms, the same measure for `Clc1cccc2cnc(NC3=NO[C@@]4(C3)CN3CCC4CC3)cc12` [(R)-24, (R)—N -(5-chloroisoquinolin-3-yl)-4H-1′-azaspiroksoxazole-5,3′-bicyclo[2.2.2]octan1-3-amine hydrochloride]: 260 nM. Same read-out and setting: the same measure for `Cc1ccc2sc(NC3=NO[C@@]4(C3)CN3CCC4CC3)nc2c1` [(R)-25, (R)—N -(5-methylbenzo[d]thiazol-2-yl)-4H-1′-azaspiro[isoxazole-5,3′-bicyclo[2.2.2]octan]-3-amine hydrochloride]: 4200 nM; for `c1cc2sc(NC3=NO[C@@]4(C3)CN3CCC4CC3)nc2cc1C1CC1` [(R)-26, (R)—N -(5-cyclopropylbenzo[d]thiazol-2-yl)-4H-1′-azaspiro[isoxazole-5,3′-bicyclo[2.2.2]octan]-3-amine hydrochloride]: 3100 nM; for `Fc1ccc2sc(NC3=NO[C@@]4(C3)CN3CCC4CC3)nc2c1` [(R)-27, (R)—N-(5-fluorobenzo[d]thiazol-2-yl)-4H-1′-azaspiro[isoxazole-5,3′-bicyclo[2.2.2]octan]-3-amine hydrochloride]: 5700 nM. The same measure, in the same setting: in the case of `Clc1cc2nc(NC3=NO[C@@]4(C3)CN3CCC4CC3)sc2cc1Cl` [(R)-30, (R)—N-(5 ,6 - dichlor obenzo[d]thiazol-2-yl)-4H-1′-azaspiro[isoxazole-5,3′-bicyclo[2.2.2]octan]-3-amine hydrochloride] it was over 10000 nM. Regarding `Clc1cccc(NC2=NO[C@@]3(C2)CN2CCC3CC2)c1` [(R)-34, (R)—N-(3-chlorophenyl)-4H-1′-azaspiro[isoxazole-5,3′-bicyclo[2.2.2]octan]-3-amine hydrochloride], the Ki was 12 nM. As to `Cc1cc2ccc(NC3=NO[C@@]4(C3)CN3CCC4CC3)cc2o1` [(R)-40, (R)—N-(2-methylbenzofuran-6-yl)-4H-1′-azaspiro[isoxazole-5,3′-bicyclo[2.2.2]octan]-3-amine hydrochloride], the Ki under setting [1] is over 10000 nM.

In the case of `Cc1cc2ccc(NC3=NO[C@@]4(C3)CN3CCC4CC3)cc2s1` [(R)-42, (R)—N-(2-methylbenzo[b]thiophen-6-yl)-4H-1′-azaspiro[isoxazole-5,3′-bicyclo[2.2.2]octan]-3-amine hydrochloride], the Ki under setting [1] was over 10000 nM. The same measure, in the same setting: in the case of `Cc1cc2cc(NC3=NO[C@@]4(C3)CN3CCC4CC3)ccc2s1` [(R)-43, (R)—N-(2-methylbenzo[b]thiophen-5-yl)-4H-1′-azaspiro[isoxazole-5,3′-bicyclo[2.2.2.]octan]-3-amine hydrochloride] it was 5900 nM; in that of `Fc1ccc2cc(NC3=NO[C@@]4(C3)CN3CCC4CC3)ncc2c1` [(R)-44, (R)—N-(7-fluoroisoquinolin-3-yl)-4H-F-azaspiro[isoxazole-5,3^1-bicyclo[2.2.2]octan]-3-amine hydrochloride], over 10000 nM; in that of `Fc1ccc2cnc(NC3=NO[C@@]4(C3)CN3CCC4CC3)cc2c1` [(R)-45, (R)—N-(6-fluoroisoquinolin-3-yl)-4H-1′-azaspiro[isoxazole-5,3′-bicyclo[2.2.2]octan]-3-amine hydrochloride], over 10000 nM. On the same count and under the same terms, in the case of `COc1ccc2cc(NC3=NO[C@@]4(C3)CN3CCC4CC3)ncc2c1` [(R)-46, (R)—N-(7-methoxyisoquinolin-3-yl)-4H-1′-azaspiro[isoxazole-5,3′-bicyclo[2.2.2]octan]-3-amine hydrochloride] it was over 10000 nM.

`COc1ccc2cnc(NC3=NO[C@@]4(C3)CN3CCC4CC3)cc2c1` [(R)-47, (R)—N-(6-methoxyisoquinolin-3-yl)-4H-1′-azaspiro[isoxazole-5,3′-bicyclo[2.2.2]octan]-3-amine hydrochloride]: under setting [1], the Ki was over 10000 nM.

Consider `Clc1ccc2nc(NC3=NO[C@@]4(C3)CN3CCC4CC3)ncc2c1` [(R)-48, (R)—N-(6-chloroquinazolin-2-yl)-4H-1′-azaspiro[isoxazole-5,3′-bicyclo[2.2.2]octan]-3-amine hydrochloride], for which the Ki under setting [1] is over 10000 nM. On the same count and under the same terms, in the case of `Clc1ccc2cnc(NC3=NO[C@@]4(C3)CN3CCC4CC3)nc2c1` [(R)-49, (R)—N-(7-chloroquinazolin-2-yl)-4H-1′-azaspiro[isoxazole-5,3′-bicyclo[2.2.2]octan]-3-amine] it was over 10000 nM.
